Laboratory results as given in the kinase profiling compilation of Christmann-Franck et al. (2016).

Tests used:
Test in all cases: KINOMEscan competition binding
Settings in all cases: compound 10.0 µM; call rule not given here
CSNK1G1 (human) = CSNK1G1 (human) (UniProt Q9HCP0)
CDK5 (human) = CDK5 (human) (UniProt Q00535)
STK11 (human) = STK11 (human) (UniProt Q15831)
STK33 (human) = STK33 (human) (UniProt Q9BYT3)
ACVR1 (human) = ACVR1 (human) (UniProt Q04771)
NLK (human) = NLK (human) (UniProt Q9UBE8)
ACVRL1 (human) = ACVRL1 (human) (UniProt P37023)
CSNK1G2 (human) = CSNK1G2 (human) (UniProt P78368)
CSNK2A1 (human) = CSNK2A1 (human) (UniProt P68400)
EPHB1 (human) = EPHB1 (human) (UniProt P54762)
STK17A (human) = STK17A (human) (UniProt Q9UEE5)
CAMK1D (human) = CAMK1D (human) (UniProt Q8IU85)
FGR (human) = FGR (human) (UniProt P09769)
ACVR2B (human) = ACVR2B (human) (UniProt Q13705)
DAPK2 (human) = DAPK2 (human) (UniProt Q9UIK4)
ALK (human) = ALK (human) (UniProt Q9UM73)
CAMK2A (human) = CAMK2A (human) (UniProt Q9UQM7)
SRC (human) = SRC (human) (UniProt P12931)
BRAF (human) = BRAF (human) (UniProt P15056)
EPHA3 (human) = EPHA3 (human) (UniProt P29320)
CDK16 (human) = CDK16 (human) (UniProt Q00536)
EPHA1 (human) = EPHA1 (human) (UniProt P21709)
PDGFRB (human) = PDGFRB (human) (UniProt P09619)
NTRK2 (human) = NTRK2 (human) (UniProt Q16620)
BRSK2 (human) = BRSK2 (human) (UniProt Q8IWQ3)
AXL (human) = AXL (human) (UniProt P30530)
YES1 (human) = YES1 (human) (UniProt P07947)
MAP4K4 (human) = MAP4K4 (human) (UniProt O95819)
ACVR2A (human) = ACVR2A (human) (UniProt P27037)
MAPK8 (human) = MAPK8 (human) (UniProt P45983)
AURKA (human) = AURKA (human) (UniProt O14965)
[1] = target: TYK2 JH1 catalytic (human) (UniProt P29597)
STK16 (human) = STK16 (human) (UniProt O75716)
SIK2 (human) = SIK2 (human) (UniProt Q9H0K1)
MAP4K3 (human) = MAP4K3 (human) (UniProt Q8IVH8)
LYN (human) = LYN (human) (UniProt P07948)
SLK (human) = SLK (human) (UniProt Q9H2G2)

ACVR1 (human), sequence (Q04771 whole entry, looked up): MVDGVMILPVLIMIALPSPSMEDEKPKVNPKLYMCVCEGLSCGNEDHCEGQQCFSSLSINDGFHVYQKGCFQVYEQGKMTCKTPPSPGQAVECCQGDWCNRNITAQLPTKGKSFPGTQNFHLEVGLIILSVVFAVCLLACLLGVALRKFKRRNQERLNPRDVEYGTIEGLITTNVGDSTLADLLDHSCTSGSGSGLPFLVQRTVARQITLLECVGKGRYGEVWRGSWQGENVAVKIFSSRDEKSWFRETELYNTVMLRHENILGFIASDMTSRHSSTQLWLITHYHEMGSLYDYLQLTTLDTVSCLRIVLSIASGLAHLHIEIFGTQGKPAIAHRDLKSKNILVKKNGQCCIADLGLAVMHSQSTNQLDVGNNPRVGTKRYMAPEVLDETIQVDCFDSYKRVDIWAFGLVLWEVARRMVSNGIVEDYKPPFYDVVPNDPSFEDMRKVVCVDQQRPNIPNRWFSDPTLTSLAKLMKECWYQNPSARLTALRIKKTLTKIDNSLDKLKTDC
LYN (human), sequence (P07948 whole entry, looked up): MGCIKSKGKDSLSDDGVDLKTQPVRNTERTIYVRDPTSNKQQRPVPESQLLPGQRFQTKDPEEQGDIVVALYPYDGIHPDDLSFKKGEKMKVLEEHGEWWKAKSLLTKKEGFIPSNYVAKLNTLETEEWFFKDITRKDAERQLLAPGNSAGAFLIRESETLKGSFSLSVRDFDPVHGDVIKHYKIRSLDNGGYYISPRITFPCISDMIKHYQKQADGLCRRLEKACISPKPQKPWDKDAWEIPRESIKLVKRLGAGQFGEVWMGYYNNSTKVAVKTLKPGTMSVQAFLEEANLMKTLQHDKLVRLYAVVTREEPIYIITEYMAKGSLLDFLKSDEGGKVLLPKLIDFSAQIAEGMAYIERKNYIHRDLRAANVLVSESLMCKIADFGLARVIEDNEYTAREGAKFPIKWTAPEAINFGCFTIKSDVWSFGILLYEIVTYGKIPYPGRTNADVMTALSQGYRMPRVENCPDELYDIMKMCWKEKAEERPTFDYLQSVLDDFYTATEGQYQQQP
ACVR2A (human), sequence (P27037 whole entry, looked up): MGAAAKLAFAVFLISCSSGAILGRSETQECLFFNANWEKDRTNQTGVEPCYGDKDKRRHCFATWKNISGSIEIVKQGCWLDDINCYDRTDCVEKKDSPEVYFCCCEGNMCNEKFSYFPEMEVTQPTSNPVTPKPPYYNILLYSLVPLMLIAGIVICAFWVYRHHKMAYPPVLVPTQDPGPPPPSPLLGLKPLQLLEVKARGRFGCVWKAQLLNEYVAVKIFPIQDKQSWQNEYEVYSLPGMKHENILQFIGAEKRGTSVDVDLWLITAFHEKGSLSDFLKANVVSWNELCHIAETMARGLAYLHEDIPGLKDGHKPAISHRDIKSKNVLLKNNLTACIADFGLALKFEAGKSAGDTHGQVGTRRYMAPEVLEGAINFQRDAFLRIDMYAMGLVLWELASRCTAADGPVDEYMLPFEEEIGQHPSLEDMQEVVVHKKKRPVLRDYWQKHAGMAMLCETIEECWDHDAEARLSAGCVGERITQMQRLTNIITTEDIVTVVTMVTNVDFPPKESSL
CAMK1D (human), sequence (Q8IU85 whole entry, looked up): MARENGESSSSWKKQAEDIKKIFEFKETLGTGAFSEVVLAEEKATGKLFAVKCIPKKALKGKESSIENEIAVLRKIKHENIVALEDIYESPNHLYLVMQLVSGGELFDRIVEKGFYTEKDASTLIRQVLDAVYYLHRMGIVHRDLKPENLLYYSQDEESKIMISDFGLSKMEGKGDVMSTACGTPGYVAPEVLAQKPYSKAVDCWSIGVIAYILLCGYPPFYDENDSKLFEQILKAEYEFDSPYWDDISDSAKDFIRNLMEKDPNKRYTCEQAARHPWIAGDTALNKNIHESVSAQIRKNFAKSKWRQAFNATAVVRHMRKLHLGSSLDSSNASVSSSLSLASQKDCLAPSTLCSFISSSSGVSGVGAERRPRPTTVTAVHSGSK
ALK (human), sequence (Q9UM73 whole entry, looked up): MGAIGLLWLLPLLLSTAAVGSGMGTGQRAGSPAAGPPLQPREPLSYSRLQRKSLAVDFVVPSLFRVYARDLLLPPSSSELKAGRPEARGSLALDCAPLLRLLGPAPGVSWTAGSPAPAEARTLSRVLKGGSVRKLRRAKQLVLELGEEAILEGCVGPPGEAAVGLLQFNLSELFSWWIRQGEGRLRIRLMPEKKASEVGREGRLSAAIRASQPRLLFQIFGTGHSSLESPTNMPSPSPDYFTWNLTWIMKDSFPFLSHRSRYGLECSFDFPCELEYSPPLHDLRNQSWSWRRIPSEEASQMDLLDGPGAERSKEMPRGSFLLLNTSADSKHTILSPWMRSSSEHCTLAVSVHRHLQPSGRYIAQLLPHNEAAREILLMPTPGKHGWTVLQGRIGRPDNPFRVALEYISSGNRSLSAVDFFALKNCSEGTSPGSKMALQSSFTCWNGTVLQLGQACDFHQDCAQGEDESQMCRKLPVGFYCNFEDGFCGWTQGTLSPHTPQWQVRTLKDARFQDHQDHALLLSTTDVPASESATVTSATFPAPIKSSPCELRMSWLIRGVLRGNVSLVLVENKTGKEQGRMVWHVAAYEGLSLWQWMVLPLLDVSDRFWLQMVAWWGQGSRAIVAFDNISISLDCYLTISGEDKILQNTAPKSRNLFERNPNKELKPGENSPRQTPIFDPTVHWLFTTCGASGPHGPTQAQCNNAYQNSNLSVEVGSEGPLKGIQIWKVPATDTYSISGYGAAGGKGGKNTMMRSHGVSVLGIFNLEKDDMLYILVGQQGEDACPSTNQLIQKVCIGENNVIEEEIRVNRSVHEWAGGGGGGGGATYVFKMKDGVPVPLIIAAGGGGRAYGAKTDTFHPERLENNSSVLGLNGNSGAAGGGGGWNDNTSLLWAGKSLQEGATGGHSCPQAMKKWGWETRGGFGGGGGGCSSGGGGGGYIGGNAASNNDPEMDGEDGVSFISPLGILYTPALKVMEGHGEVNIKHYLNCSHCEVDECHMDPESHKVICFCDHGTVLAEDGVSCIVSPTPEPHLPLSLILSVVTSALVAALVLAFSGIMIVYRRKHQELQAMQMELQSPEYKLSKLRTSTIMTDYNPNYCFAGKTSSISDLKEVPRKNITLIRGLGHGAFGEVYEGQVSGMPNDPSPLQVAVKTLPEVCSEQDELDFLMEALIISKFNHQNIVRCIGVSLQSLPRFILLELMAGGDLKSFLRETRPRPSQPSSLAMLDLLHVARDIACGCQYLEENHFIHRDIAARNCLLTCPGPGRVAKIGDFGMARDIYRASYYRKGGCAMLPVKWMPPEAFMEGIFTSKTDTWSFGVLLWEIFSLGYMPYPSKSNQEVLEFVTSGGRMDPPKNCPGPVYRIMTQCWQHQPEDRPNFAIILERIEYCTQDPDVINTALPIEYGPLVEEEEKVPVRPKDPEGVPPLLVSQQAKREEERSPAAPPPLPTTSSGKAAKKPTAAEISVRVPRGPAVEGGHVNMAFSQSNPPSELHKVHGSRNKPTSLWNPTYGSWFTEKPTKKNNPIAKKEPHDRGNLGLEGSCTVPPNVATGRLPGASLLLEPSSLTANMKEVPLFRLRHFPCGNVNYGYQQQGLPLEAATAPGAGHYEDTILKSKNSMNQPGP
NLK (human), sequence (Q9UBE8 whole entry, looked up): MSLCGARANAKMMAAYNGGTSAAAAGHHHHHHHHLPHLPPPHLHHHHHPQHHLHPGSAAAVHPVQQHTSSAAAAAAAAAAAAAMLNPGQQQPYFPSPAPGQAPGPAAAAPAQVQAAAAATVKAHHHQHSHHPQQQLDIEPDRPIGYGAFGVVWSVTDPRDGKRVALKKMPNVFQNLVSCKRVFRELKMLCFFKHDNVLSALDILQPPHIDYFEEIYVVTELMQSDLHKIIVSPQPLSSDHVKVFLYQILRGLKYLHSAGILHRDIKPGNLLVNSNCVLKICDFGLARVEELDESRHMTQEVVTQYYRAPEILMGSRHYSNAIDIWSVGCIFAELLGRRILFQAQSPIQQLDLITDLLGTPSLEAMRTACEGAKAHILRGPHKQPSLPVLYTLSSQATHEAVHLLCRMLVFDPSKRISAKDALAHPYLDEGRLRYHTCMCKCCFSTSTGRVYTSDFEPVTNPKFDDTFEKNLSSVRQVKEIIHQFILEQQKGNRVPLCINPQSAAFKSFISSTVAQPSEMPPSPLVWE
YES1 (human), sequence (P07947 whole entry, looked up): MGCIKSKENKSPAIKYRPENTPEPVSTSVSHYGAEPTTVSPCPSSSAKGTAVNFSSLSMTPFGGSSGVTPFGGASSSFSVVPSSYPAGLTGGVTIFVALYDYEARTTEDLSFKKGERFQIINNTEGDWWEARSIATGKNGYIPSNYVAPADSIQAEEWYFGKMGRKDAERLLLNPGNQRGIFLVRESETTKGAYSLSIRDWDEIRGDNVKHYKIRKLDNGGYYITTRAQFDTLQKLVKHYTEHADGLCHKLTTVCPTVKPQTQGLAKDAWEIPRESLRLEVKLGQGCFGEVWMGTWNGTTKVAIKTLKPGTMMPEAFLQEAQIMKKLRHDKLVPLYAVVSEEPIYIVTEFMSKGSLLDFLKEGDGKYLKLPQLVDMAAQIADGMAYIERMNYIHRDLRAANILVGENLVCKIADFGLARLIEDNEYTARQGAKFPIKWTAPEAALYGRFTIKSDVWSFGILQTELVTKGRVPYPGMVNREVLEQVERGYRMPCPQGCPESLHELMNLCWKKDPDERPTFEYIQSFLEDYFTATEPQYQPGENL
MAPK8 (human), sequence (P45983 whole entry, looked up): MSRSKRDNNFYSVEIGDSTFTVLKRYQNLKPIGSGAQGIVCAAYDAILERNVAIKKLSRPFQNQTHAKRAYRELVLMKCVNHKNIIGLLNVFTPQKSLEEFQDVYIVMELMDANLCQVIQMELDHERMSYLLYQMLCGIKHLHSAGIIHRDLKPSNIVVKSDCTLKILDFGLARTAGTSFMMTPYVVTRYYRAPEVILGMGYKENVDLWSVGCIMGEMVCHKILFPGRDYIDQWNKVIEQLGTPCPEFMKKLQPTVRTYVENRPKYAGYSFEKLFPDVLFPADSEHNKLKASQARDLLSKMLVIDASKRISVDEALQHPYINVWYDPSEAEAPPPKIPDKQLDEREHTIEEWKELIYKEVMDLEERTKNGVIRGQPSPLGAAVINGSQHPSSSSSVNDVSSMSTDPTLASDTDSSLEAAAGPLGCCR

Row | kinase still bound, per cent of control (CSNK1G1 (human)) | kinase still bound, per cent of control (CDK5 (human)) | kinase still bound, per cent of control (ACVR1 (human)) | kinase still bound, per cent of control (NLK (human)) | kinase still bound, per cent of control (ACVRL1 (human)) | kinase still bound, per cent of control (EPHB1 (human)) | kinase still bound, per cent of control (CAMK1D (human)) | kinase still bound, per cent of control (FGR (human)) | kinase still bound, per cent of control (ACVR2B (human)) | kinase still bound, per cent of control (ALK (human)) | kinase still bound, per cent of control (CAMK2A (human)) | kinase still bound, per cent of control (SRC (human)) | kinase still bound, per cent of control (BRAF (human)) | kinase still bound, per cent of control (EPHA3 (human)) | kinase still bound, per cent of control (CDK16 (human)) | kinase still bound, per cent of control (EPHA1 (human)) | kinase still bound, per cent of control (NTRK2 (human)) | kinase still bound, per cent of control (BRSK2 (human)) | kinase still bound, per cent of control (YES1 (human)) | kinase still bound, per cent of control (ACVR2A (human)) | further results | SMILES
1 | no effect (inactive) | no effect (inactive) | no effect (inactive) | no effect (inactive) | no effect (inactive) | 0% |  |  |  |  |  |  |  |  |  |  |  |  |  |  | kinase still bound, per cent of control (STK11 (human)): 0%; kinase still bound, per cent of control (STK33 (human)): no effect (inactive); kinase still bound, per cent of control (CSNK1G2 (human)): no effect (inactive); kinase still bound, per cent of control (CSNK2A1 (human)): 0% | NC(=O)Nc1sc(-c2ccc(F)cc2)cc1C(N)=O
2 |  | no effect (inactive) |  |  |  | 0% | no effect (inactive) | 0% | 0% | no effect (inactive) | no effect (inactive) | 0% | no effect (inactive) | 0% | no effect (inactive) | 0% | no effect (inactive) | no effect (inactive) | 0% |  | kinase still bound, per cent of control (STK17A (human)): no effect (inactive); kinase still bound, per cent of control (DAPK2 (human)): no effect (inactive); kinase still bound, per cent of control (PDGFRB (human)): 0%; kinase still bound, per cent of control (AXL (human)): no effect (inactive); kinase still bound, per cent of control (CSNK2A1 (human)): no effect (inactive) | Cc1ccc(O)cc1Nc1ccnc(Nc2cccc(C(N)=O)c2)n1
3 | no effect (inactive) | no effect (inactive) | no effect (inactive) | no effect (inactive) | no effect (inactive) |  |  |  |  |  | no effect (inactive) |  | no effect (inactive) |  | no effect (inactive) |  |  | no effect (inactive) |  | no effect (inactive) | kinase still bound, per cent of control (MAP4K4 (human)): no effect (inactive); kinase still bound, per cent of control (MAPK8 (human)): no effect (inactive) | CN(C)c1ccc(-c2cc3ncccc3c(NCCCCN)n2)cc1
4 | no effect (inactive) |  |  |  |  |  | no effect (inactive) |  |  | no effect (inactive) | no effect (inactive) | no effect (inactive) |  |  | 0% |  | no effect (inactive) |  |  |  | kinase still bound, per cent of control (STK17A (human)): no effect (inactive); kinase still bound, per cent of control (AURKA (human)): no effect (inactive); kinase still bound, per cent of control (STK33 (human)): no effect (inactive); kinase still bound, per cent of control [1]: no effect (inactive); kinase still bound, per cent of control (STK16 (human)): 0%; kinase still bound, per cent of control (SIK2 (human)): no effect (inactive); kinase still bound, per cent of control (CSNK1G2 (human)): no effect (inactive); kinase still bound, per cent of control (MAPK8 (human)): no effect (inactive); kinase still bound, per cent of control (MAP4K3 (human)): no effect (inactive); kinase still bound, per cent of control (AXL (human)): no effect (inactive); kinase still bound, per cent of control (LYN (human)): no effect (inactive) | O=C(Nc1n[nH]c2nc(-c3cccc(O)c3)ccc12)C1CC1
5 | no effect (inactive) |  | no effect (inactive) | no effect (inactive) | no effect (inactive) |  | no effect (inactive) | no effect (inactive) | no effect (inactive) |  | no effect (inactive) | no effect (inactive) | no effect (inactive) | no effect (inactive) | 0% | no effect (inactive) |  |  | no effect (inactive) | no effect (inactive) | kinase still bound, per cent of control (SLK (human)): no effect (inactive); kinase still bound, per cent of control (SIK2 (human)): no effect (inactive); kinase still bound, per cent of control (PDGFRB (human)): 0%; kinase still bound, per cent of control (LYN (human)): no effect (inactive) | O=C1Nc2ccccc2/C1=C/c1ccc[nH]1
6 |  |  |  | no effect (inactive) |  | no effect (inactive) |  | no effect (inactive) | no effect (inactive) | no effect (inactive) |  | no effect (inactive) |  | no effect (inactive) |  | no effect (inactive) | no effect (inactive) | no effect (inactive) | no effect (inactive) | no effect (inactive) | kinase still bound, per cent of control (AURKA (human)): no effect (inactive); kinase still bound, per cent of control [1]: no effect (inactive); kinase still bound, per cent of control (STK16 (human)): 0%; kinase still bound, per cent of control (SIK2 (human)): no effect (inactive); kinase still bound, per cent of control (MAPK8 (human)): no effect (inactive); kinase still bound, per cent of control (LYN (human)): no effect (inactive) | N#Cc1ccc(-c2cnc3[nH]cc(NC(=O)c4cccnc4)c3c2)cc1
